Measured values as given in patent publication US8263638B2, “Dosing regimens for ion channel modulating compounds” (priority 2004, dated 2012).

Legend:
[1] = test system: Human Cardiac Electrophysiology; assay: Electrophysiological effects of two intravenous doses in patients (Example 1); type: in vivo; parameters: AH interval / HV interval / VERP / AERP / QT / QRS / Atrial MAP50: unit not given here; conditions: for Diastolic BP / HEART RATE / Systolic BP: T = 45 min
Description: This example provides the results of a study conducted to determine the electrophysiological effects of two intravenous doses of COMPOUND A. Patients in the study required electrophysiologic studies (with or without radiofrequency ablation) and were from 18 to 75 years of age. Following the study and ablation (if applicable), the atrial MAP catheter was positioned and the following electrophysiological measures were performed: • 1. Intervals reflecting conduction: […] Intervals reflecting repolarization/refractoriness: • a). […] Heart rate, brachial (cuff) blood pressure. Drug Administration: • 1. […] Twenty five minutes after the start of intravenous drug infusion (15 minutes after the end of loading and start of maintenance infusion), all electrophysiological measures were repeated.

[2] = Plasma concentrations of COMPOUND A in electrophysiology study (Example 1); type: in vivo; conditions: human, intravenous, T = 45 min
Description: Blood samples for COMPOUND A concentrations were drawn at 0, 10 and 45 minutes after the start of drug infusion, and at discharge the next day.

[3] = test system: atrial fibrillation of 3 hours to 45 days; assay: Conversion of recent onset atrial fibrillation to sinus rhythm (Example 3); type: in vivo, human; conditions: for Number of Patients Converted to Sinus Rhythm / Patients (%) Converted to Sinus Rhythm: within 90 minutes
Description: The primary endpoint of this study was the proportion of patients with atrial fibrillation duration of 3 hours to 7 days who had treatment-induced conversion to sinus rhythm within 90 minutes of treatment. Secondary endpoints included the time-to-conversion of atrial fibrillation to sinus rhythm in patients with atrial fibrillation duration of 3 hours to 7 days; the proportion of patients with atrial fibrillation of 8 to 45 days who had treatment-induced conversion to sinus rhythm within 90 minutes of treatment, and the proportion of patients in the entire group with atrial fibrillation of 3 hours to 45 days who had treatment-induced conversion to sinus rhythm within 90 minutes of treatment.
336 patients were randomized in a 2:1 ratio of COMPOUND A to placebo (221 patients received COMPOUND A and 115 patients received placebo) and stratified by atrial fibrillation duration of 3 hours to 7 days and 8 to 45 days.
A first 10-minute infusion of a test compound (placebo or 3 mg/kg of COMPOUND A) was given to each patient. A second 10-minute infusion (placebo or 2 mg/kg of COMPOUND A) was given 15 minutes later if atrial fibrillation was not terminated. Safety was assessed by the incidence of adverse events, vital signs, laboratory data, ECG and holter monitoring.

[4] = 30-day interval following administration
[5] = AF 8-45 days, 3 mg/kg then 2 mg/kg
[6] = AF 3 hr-7 days, 3 mg/kg then 2 mg/kg

COc1ccc(CCO[C@@H]2CCCC[C@H]2N2CC[C@@H](O)C2)cc1OC.Cl [COMPOUND A, (1R,2R)-2-[(3R)-hydroxypyrrolidinyl]-1-(3,4-dimethoxyphenethoxy)cyclohexane monohydrochloride]
AERP 400 Ave Δ ([1]; Dose Level 1): 3.3 ± 5.4%
AERP 400 Ave Δ (Change from Baseline) ([1]; Dose Level 1): 5.0 ± 9.0 ms
SNRT (A1 400) ([1]; Dose Level 1): 1114.4 ± 227.4 ms
SNRT (A1 600) ([1]; Dose Level 1): 1157.8 ± 238.3 ms
Wenckebach Cycle Length ([1]; Dose Level 1): 388.1 ± 94.4 ms
Diastolic BP ([1]; Dose Level 1, 2 mg/kg): 84 ± 12 mm Hg
HEART RATE ([1]; Dose Level 1, 2 mg/kg): 78 ± 11 bpm
Systolic BP ([1]; Dose Level 1, 2 mg/kg): 135 ± 15 mm Hg
AERP ([1]; Dose Level 1, 300 msec): 180.5 ± 15.5
AERP ([1]; Dose Level 1, 400 msec): 195.0 ± 23.8
VERP ([1]; Dose Level 1, 400 msec): 226.7 ± 16.4
AH interval ([1]; Dose Level 1, 400 msec pacing): 134.2 ± 69.2
HV interval ([1]; Dose Level 1, 400 msec pacing): 52.5 ± 13.6
PA interval ([1]; Dose Level 1, 400 msec pacing): 61.8 ± 30.2
PR interval ([1]; Dose Level 1, 400 msec pacing): 239.2 ± 76.7
AERP ([1]; Dose Level 1, 600 msec): 219.5 ± 32.2
VERP ([1]; Dose Level 1, 600 msec): 247.8 ± 22.0
AH interval ([1]; Dose Level 1, 600 msec pacing): 113.8 ± 29.9
HV interval ([1]; Dose Level 1, 600 msec pacing): 50.1 ± 12.6
PA interval ([1]; Dose Level 1, 600 msec pacing): 64.0 ± 22.4
PR interval ([1]; Dose Level 1, 600 msec pacing): 227.7 ± 45.3
Atrial MAP50 ([1]; Dose Level 1, A1 200 msec): 116.4 ± 15.4
Atrial MAP50 ([1]; Dose Level 1, A1 250 msec): 134.2 ± 18.4
Atrial MAP50 ([1]; Dose Level 1, A1 300 msec): 139.5 ± 20.4
Atrial MAP50 ([1]; Dose Level 1, A1 400 msec): 152.6 ± 19.7
QRS ([1]; Dose Level 1, A1 400 msec): 87.0 ± 6.6
QT ([1]; Dose Level 1, A1 400 msec): 325.4 ± 9.0
Atrial MAP50 ([1]; Dose Level 1, A1 600 msec): 172.8 ± 31.9
QRS ([1]; Dose Level 1, A1 600 msec): 89 ± 9
QT ([1]; Dose Level 1, A1 600 msec): 363 ± 27
QRS Ave Δ ([1]; Dose Level 1, V1 400): 7.6 ± 11.5%
QRS ([1]; Dose Level 1, V1 400 msec): 160.5 ± 23.0
QT ([1]; Dose Level 1, V1 400 msec): 381.5 ± 25.2
QRS ([1]; Dose Level 1, V1 600 msec): 169 ± 24
QT ([1]; Dose Level 1, V1 600 msec): 433 ± 30
AERP 400 Ave Δ ([1]; Dose Level 2): 14.7 ± 11.5 %
AERP 400 Ave Δ (Change from Baseline) ([1]; Dose Level 2): 24.4 ± 17.8 ms
AERP 600 Ave Δ ([1]; Dose Level 2): 16.9 ± 9.0 %
SNRT (A1 400) ([1]; Dose Level 2): 1047.1 ± 212.2 ms
SNRT (A1 600) ([1]; Dose Level 2): 1033.3 ± 247.8 ms
Wenckebach Cycle Length ([1]; Dose Level 2): 366.9 ± 53.7 ms
Diastolic BP ([1]; Dose Level 2, 4 mg/kg): 75 ± 9 mm Hg
HEART RATE ([1]; Dose Level 2, 4 mg/kg): 91 ± 19 bpm
Systolic BP ([1]; Dose Level 2, 4 mg/kg): 126 ± 15 mm Hg
AERP ([1]; Dose Level 2, 300 msec): 192.8 ± 20.2
AERP ([1]; Dose Level 2, 400 msec): 206.7 ± 25.6
VERP ([1]; Dose Level 2, 400 msec): 227.5 ± 16.3
AH interval ([1]; Dose Level 2, 400 msec pacing): 147.0 ± 67.6
HV interval ([1]; Dose Level 2, 400 msec pacing): 50.2 ± 8.4
PA interval ([1]; Dose Level 2, 400 msec pacing): 75.8 ± 24.4
PR interval ([1]; Dose Level 2, 400 msec pacing): 261.2 ± 60.4
AERP ([1]; Dose Level 2, 600 msec): 227.9 ± 22.5
VERP ([1]; Dose Level 2, 600 msec): 261.7 ± 16.3
AH interval ([1]; Dose Level 2, 600 msec pacing): 101.7 ± 21.5
HV interval ([1]; Dose Level 2, 600 msec pacing): 50.9 ± 7.0
PA interval ([1]; Dose Level 2, 600 msec pacing): 69.1 ± 21.5
PR interval ([1]; Dose Level 2, 600 msec pacing): 224.6 ± 18.8
Atrial MAP50 ([1]; Dose Level 2, A1 200 msec): 124.0
Atrial MAP50 ([1]; Dose Level 2, A1 250 msec): 130.0 ± 14.5
Atrial MAP50 ([1]; Dose Level 2, A1 300 msec): 135.6 ± 20.4
Atrial MAP50 ([1]; Dose Level 2, A1 400 msec): 143.7 ± 25.2
QRS ([1]; Dose Level 2, A1 400 msec): 86.4 ± 9.0
QT ([1]; Dose Level 2, A1 400 msec): 336.7 ± 27.8
Atrial MAP50 ([1]; Dose Level 2, A1 600 msec): 165.5 ± 33.3
QRS ([1]; Dose Level 2, A1 600 msec): 89 ± 8
QT ([1]; Dose Level 2, A1 600 msec): 364 ± 20
QRS ([1]; Dose Level 2, V1 400 msec): 157.3 ± 22.5
QT ([1]; Dose Level 2, V1 400 msec): 376.3 ± 32.5
QRS ([1]; Dose Level 2, V1 600 msec): 157 ± 15
QT ([1]; Dose Level 2, V1 600 msec): 412 ± 30
effect on ventricular refractoriness, repolarization or conduction ([1]; at the doses studied): no significant effect
conduction effect in the AV node, His Purkinje, and ventricular tissue ([1]; conclusion of study): small but significant conduction slowing effect
effect on atrial refractory periods ([1]; conclusion of study): dose-dependently prolongs
patients with a metallic taste in mouth ([1]; n=19, both dose levels): three
patients with a transient tingling sensation ([1]; n=19, both dose levels): four
patients with numbness in tongue ([1]; n=19, both dose levels): one
patients with transient hypotension ([1]; n=19, both dose levels): one
concentration at 45 min ([2]; Dose Level 1, 2 mg/kg): 1080 ± 279 ng/mL
concentration at 45 min ([2]; Dose Level 2, 4 mg/kg): 2170 ± 422 ng/mL
patients with recurrence of atrial fibrillation (serious adverse event) [3, 4]: 6%
patients with serious adverse events [3, 4]: 13%
converted patients relapsed within 24 hrs of administration ([3]; 3 hours to 7 days group converters): one
median time to conversion ([3]; 3 hours to 7 days group, seventy-five converters): eleven
Number of Patients Converted to Sinus Rhythm [3, 5]: 6
Patients (%) Converted to Sinus Rhythm [3, 5]: 8%
Number of Patients Converted to Sinus Rhythm [3, 6]: 75
Patients (%) Converted to Sinus Rhythm [3, 6]: 52%
Number of Patients Converted to Sinus Rhythm ([3]; Entire Group, AF 3 hr-45 days): 83
Patients (%) Converted to Sinus Rhythm ([3]; Entire Group, AF 3 hr-45 days): 38%
drug-related Torsades de Pointes ([3]; in vivo): no cases
patients with transient alteration in taste ([3]; in vivo): 30%
